Experimental data: ChEMBL document CHEMBL1138163, “Potent 2-[(pyrimidin-4-yl)amine}-1,3-thiazole-5-carbonitrile-based inhibitors of VEGFR-2 (KDR) kinase” (Bioorg Med Chem Lett, 2006)

Key:
[1] = Volume of distribution in rhesus monkey at 1 mg/kg, iv and 1 mg/kg, po; type: ADME, organism-based, Macaca mulatta; settings: in vivo, read-out: Vdss
[2] = Oral bioavailability in rat at 10 mg/kg, po; type: ADME, organism-based; settings: in vivo
[3] = Clearance in rhesus monkey at 1 mg/kg, iv and 1 mg/kg, po; type: ADME, organism-based, Macaca mulatta; settings: in vivo
[4] = target: Voltage-gated inwardly rectifying potassium channel KCNH2 (Homo sapiens, UniProt Q12809); assay: Displacement of [3H]dofetilide from human ERG
Sequence of Voltage-gated inwardly rectifying potassium channel KCNH2 (Q12809 whole entry): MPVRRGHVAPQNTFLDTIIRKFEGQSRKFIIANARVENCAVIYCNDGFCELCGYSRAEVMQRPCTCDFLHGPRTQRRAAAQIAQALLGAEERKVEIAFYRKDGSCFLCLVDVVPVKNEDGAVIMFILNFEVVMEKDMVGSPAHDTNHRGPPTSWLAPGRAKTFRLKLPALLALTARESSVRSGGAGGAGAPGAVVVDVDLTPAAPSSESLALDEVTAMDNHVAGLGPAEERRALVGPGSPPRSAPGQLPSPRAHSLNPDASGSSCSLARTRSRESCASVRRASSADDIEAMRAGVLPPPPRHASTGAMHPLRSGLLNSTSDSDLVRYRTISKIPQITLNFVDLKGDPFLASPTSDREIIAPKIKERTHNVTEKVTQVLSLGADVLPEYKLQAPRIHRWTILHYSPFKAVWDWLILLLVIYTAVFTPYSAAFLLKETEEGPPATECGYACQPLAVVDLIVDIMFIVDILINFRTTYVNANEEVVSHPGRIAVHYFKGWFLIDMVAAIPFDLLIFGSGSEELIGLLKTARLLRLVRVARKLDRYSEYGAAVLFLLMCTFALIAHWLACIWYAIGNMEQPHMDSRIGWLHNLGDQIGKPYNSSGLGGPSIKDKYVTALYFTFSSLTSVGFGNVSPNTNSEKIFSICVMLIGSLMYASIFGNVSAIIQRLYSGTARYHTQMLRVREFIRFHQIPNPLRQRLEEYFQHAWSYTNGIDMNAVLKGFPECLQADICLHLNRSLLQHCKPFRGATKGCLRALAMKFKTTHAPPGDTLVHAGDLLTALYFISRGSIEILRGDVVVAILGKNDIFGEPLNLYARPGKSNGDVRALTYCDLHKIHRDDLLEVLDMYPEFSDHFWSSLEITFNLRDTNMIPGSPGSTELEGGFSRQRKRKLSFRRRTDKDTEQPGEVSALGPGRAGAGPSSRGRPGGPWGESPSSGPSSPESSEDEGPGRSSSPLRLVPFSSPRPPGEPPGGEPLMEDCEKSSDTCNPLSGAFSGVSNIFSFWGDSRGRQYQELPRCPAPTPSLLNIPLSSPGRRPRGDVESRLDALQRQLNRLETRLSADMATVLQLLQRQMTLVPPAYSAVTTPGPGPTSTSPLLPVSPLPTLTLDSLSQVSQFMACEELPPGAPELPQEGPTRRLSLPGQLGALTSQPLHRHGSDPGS

[5] = Clearance in rat at 2 mg/kg, iv and 10 mg/kg, po; type: ADME, organism-based; settings: in vivo
[6] = Oral bioavailability in rhesus monkey at 1 mg/kg, po; type: ADME, organism-based, Macaca mulatta; settings: in vivo
[7] = Volume of distribution in dog at 1 mg/kg, iv and 1 mg/kg, po; type: ADME, organism-based, Canis lupus familiaris; settings: in vivo, read-out: Vdss
[8] = Oral bioavailability in dog at 1 mg/kg, po; type: ADME, organism-based, Canis lupus familiaris; settings: in vivo
[9] = Half life in Beagle dog at 0.25 mg/kg, iv; type: ADME, organism-based, Canis lupus familiaris; parameters: dose 0.25 mg/kg, route intravenous; settings: in vivo
Canis familiaris = assay: AUC in Beagle dog at 0.25 mg/kg, iv; type: ADME, organism-based, Canis lupus familiaris, Plasma; parameters: dose 0.25 mg/kg, route intravenous; settings: in vivo
[10] = Volume of distribution in Beagle dog at 0.25 mg/kg, iv; type: ADME, organism-based, Canis lupus familiaris; parameters: dose 0.25 mg/kg, route intravenous; settings: in vivo, read-out: Vdss
[11] = Clearance in dog at 1 mg/kg, iv and 1 mg/kg, po; type: ADME, organism-based, Canis lupus familiaris; settings: in vivo
[12] = Volume of distribution in rat at 2 mg/kg, iv and 10 mg/kg, po; type: ADME, organism-based; settings: in vivo, read-out: Vdss

half-life [9] [h]	AUC (Canis familiaris) [µM·h]	Vd [10] [L/kg]	Compound	Activity [4] [µM]	also measured
10.5	10.2	2.4	N#Cc1cnc(Nc2cc(N3CCN(CCN4CCOCC4)CC3)ncn2)s1	5	Vd [1]: 10.1 L/kg; bioavailability [2]: > 99%; clearance [3]: 1.36 L/h/kg; clearance [5]: 2.32 L/h/kg; bioavailability [6]: 54%; Vd [7]: 2.72 L/kg; bioavailability [8]: 51%; clearance [11]: 0.247 L/h/kg; Vd [12]: 3.32 L/kg
2	4.81	1.31	COCCN1CCN(c2cc(Nc3ncc(C#N)s3)ncn2)CC1		
			N#Cc1cnc(Nc2cc(N3CCCNCC3)ncn2)s1	2.951	
			N#Cc1cnc(Nc2ccncn2)s1	2.932	
23	6.07	14.1	N#Cc1cnc(Nc2cc(N3CCN(CCN4CCCC4)CC3)ncn2)s1	0.383	
			CN1CCN(c2cc(Nc3ncc(C#N)s3)ncn2)CC1	0.923	
1.34	1.91	3.65	N#Cc1cnc(Nc2cc(N3CCC(N)CC3)ncn2)s1	6.643	
7.97	3.08	14.8	N#Cc1cnc(Nc2cc(N3CCN(CCCN4CCOCC4)CC3)ncn2)s1	4.003	
			N#Cc1cnc(Nc2cc(N)ncn2)s1	> 10	
			CC(=O)N1CCN(c2cc(Nc3ncc(C#N)s3)ncn2)CC1	3.291	
			N#Cc1cnc(Nc2ccnc(N)n2)s1	> 10	
			N#Cc1cnc(Nc2cc(N3CCCC(N)CC3)ncn2)s1 (stereo not given)	1.012	
